Laboratory results as given in ChEMBL document CHEMBL5104138, “Discovery of pyridyl urea sulfonamide inhibitors of NaV1.7” (Bioorg Med Chem Lett, 2022).
In brackets after ≈: the same amount, converted by molar mass.

Legend:
[1] = target: Sodium channel protein type 9 subunit alpha (Homo sapiens, UniProt Q15858); experiment: Inhibition of human Nav1.7 by PatchXpress assay
[2] = Clearance in rat at 0.5 mg/kg, iv; conditions: in vivo
Cytochrome P450 2D6 [3] = target: T1, Cytochrome P450 2D6 (Homo sapiens, UniProt P10635); experiment: Time dependent inhibition of CYP2D6 (unknown origin) incubated for 30 mins; assay type: ADME
T1 sequence (P10635 whole entry): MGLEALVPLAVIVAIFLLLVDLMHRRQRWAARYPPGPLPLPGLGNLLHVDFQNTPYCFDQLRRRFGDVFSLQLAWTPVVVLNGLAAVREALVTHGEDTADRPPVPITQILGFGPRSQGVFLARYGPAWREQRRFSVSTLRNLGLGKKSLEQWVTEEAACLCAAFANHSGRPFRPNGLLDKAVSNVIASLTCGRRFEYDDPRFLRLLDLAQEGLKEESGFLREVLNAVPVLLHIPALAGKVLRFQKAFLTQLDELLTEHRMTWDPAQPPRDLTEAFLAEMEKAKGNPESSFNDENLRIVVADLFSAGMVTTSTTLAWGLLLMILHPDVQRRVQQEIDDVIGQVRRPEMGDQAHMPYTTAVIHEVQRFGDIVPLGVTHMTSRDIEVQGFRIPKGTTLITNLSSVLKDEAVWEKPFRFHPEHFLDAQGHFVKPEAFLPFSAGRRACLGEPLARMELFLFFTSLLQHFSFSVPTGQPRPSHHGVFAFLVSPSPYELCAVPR

[4] = rat, in vivo, iv, 0.5 mg/kg
Description: Unbound clearance in rat at 0.5 mg/kg, iv

Cytochrome P450 3A4 [5] = target: T2, Cytochrome P450 3A4 (Homo sapiens, UniProt P08684); experiment: Time dependent inhibition of CYP3A4 in human liver microsomes using midazolam as substrate preincubated for 30 mins followed by substrate addition; assay type: ADME, Microsome
T2 sequence (P08684 whole entry): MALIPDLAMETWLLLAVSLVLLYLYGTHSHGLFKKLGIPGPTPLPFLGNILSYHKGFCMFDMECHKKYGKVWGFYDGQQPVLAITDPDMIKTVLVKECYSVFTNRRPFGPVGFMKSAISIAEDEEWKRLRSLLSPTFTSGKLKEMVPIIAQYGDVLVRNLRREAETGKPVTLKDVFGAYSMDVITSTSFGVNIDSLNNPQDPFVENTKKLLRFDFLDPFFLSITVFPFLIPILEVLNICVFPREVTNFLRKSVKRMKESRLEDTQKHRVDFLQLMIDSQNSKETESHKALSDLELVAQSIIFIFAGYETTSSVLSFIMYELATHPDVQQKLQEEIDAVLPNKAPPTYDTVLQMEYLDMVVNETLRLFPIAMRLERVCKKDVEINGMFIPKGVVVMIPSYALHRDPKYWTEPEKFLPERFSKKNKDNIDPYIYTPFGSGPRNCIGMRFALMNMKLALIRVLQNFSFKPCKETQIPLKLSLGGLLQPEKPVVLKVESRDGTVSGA

Cytochrome P450 3A4 [6] = target: T2, Cytochrome P450 3A4; experiment: Time dependent inhibition of CYP3A4 in human liver microsomes using midazolam as substrate incubated for 30 mins; assay type: ADME, Microsome
Cytochrome P450 2D6 [7] = target: T1, Cytochrome P450 2D6; experiment: Time dependent inhibition of CYP2D6 (unknown origin) preincubated for 30 mins followed by substrate addition; assay type: ADME
[8] = Lipophilicity, logD of compound at pH 7.4; assay type: physicochemical; conditions: buffer
[9] = Passive permeability of compound; assay type: ADME; conditions: not told; read-out: permeability
[10] = Intrinsic clearance in rat liver microsomes assessed as loss of parent compound incubated for 30 mins; assay type: ADME, Microsome; conditions: read-out: CLH
Cytochrome P450 2C9 [11] = target: T3, Cytochrome P450 2C9 (Homo sapiens, UniProt P11712); experiment: Inhibition of CYP2C9 (unknown origin) using diclofenac as substrate; assay type: ADME
T3 sequence (P11712 whole entry): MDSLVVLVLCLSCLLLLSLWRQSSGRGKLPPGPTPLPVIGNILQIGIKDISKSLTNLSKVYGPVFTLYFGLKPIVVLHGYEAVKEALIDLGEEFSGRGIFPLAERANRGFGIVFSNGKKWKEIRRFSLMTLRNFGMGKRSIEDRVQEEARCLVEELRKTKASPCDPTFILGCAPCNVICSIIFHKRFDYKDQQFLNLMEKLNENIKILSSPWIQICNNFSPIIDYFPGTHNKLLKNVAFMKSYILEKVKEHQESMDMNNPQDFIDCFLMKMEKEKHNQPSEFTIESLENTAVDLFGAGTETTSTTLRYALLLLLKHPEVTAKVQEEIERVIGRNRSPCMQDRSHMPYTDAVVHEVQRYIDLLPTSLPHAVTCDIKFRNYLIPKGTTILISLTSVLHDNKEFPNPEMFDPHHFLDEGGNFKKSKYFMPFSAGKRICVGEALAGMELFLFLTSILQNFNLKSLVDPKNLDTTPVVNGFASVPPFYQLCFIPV

[12] = target: Sodium channel protein type 5 subunit alpha (Homo sapiens, UniProt Q14524); experiment: Inhibition of human Nav1.5 at -50 mV holding potential by PatchXpress assay
[13] = Permeability in MDCK cells; assay type: ADME, cell-based, Canis lupus familiaris; conditions: dog, read-out: permeability
Cytochrome P450 2C9 [14] = target: T3, Cytochrome P450 2C9; experiment: Inhibition of CYP2C9 (unknown origin); assay type: ADME
Mus musculus [15] = experiment: Antinociceptive activity in capsaicin-induced licking mouse model assessed as reduction in time spent on licking at 10 mg/kg, po relative to control; assay type: functional; set-up: scale not given: the % may be the effect or the level left
[16] = Half life in mouse at 100 mg/kg, po; assay type: ADME, organism-based; conditions: in vivo
[17] = Clearance in mouse; assay type: ADME, organism-based; conditions: in vivo
[18] = Unbound clearance in dog at 0.25 mg/kg, iv; assay type: ADME, organism-based, Canis lupus familiaris; conditions: in vivo
[19] = AUC in dog at 2 mg/kg, po; assay type: ADME, organism-based, Canis lupus familiaris; set-up: dose 2 mg/kg, route po; conditions: in vivo
[20] = Unbound clearance in mouse; assay type: ADME, organism-based; conditions: in vivo
Mus musculus [21] = experiment: Antinociceptive activity in mouse model of Histamine-induced itching assessed as reduction in scratching bouts at 10 mg/kg, po relative to control; assay type: functional; set-up: scale not given: the % may be the effect or the level left
PXR (NR1I2) = target: T4, PXR (NR1I2) (Homo sapiens, UniProt O75469); experiment: Activation of human PXR at 10 uM relative to control; assay type: toxicity; conditions: read-out: Activity
T4 sequence (O75469 whole entry): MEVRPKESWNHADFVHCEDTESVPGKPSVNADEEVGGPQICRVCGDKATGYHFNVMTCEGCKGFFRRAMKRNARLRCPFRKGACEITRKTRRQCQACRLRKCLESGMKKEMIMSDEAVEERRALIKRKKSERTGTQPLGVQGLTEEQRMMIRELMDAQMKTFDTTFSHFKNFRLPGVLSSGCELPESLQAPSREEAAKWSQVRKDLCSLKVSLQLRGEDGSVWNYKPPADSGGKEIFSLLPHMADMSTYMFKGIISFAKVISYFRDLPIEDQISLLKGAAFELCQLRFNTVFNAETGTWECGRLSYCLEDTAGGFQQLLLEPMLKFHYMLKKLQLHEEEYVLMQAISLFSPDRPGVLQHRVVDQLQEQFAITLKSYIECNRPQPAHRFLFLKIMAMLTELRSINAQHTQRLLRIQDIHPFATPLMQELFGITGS

[22] = Clearance in dog at 0.25 mg/kg, iv; assay type: ADME, organism-based, Canis lupus familiaris; conditions: in vivo
[23] = AUC in rat at 10 mg/kg, po; assay type: ADME, organism-based; set-up: dose 10 mg/kg, route po; conditions: in vivo
Mus musculus [24] = experiment: Antinociceptive activity in UV burn-induced thermal hyperalgesia mouse model assessed as reduction in latency time at 30 mg/kg, po relative to control; assay type: functional; set-up: scale not given: the % may be the effect or the level left
[25] = Solubility of the compound at pH 7.4; assay type: physicochemical; conditions: buffer
[26] = AUC in mouse at 100 mg/kg, po; assay type: ADME, organism-based; set-up: dose 100 mg/kg, route po; conditions: in vivo
Mus musculus [27] = experiment: Antinociceptive activity in mouse model of Histamine-induced itching assessed as reduction in scratching bouts at 30 mg/kg, po relative to control; assay type: functional; set-up: scale not given: the % may be the effect or the level left
[28] = half life in dog at 2 mg/kg, po; assay type: ADME, organism-based, Canis lupus familiaris; conditions: in vivo
[29] = Oral bioavailability in dog at 2 mg/kg; assay type: ADME, organism-based, Canis lupus familiaris; conditions: in vivo
[30] = Oral bioavailability in rat at 10 mg/kg; assay type: ADME, organism-based; conditions: in vivo
Mus musculus [31] = experiment: Antinociceptive activity in mouse model of Histamine-induced itching assessed as reduction in scratching bouts at 3 mg/kg, po relative to control; assay type: functional; set-up: scale not given: the % may be the effect or the level left
[32] = Oral bioavailability in mouse at 100 mg/kg; assay type: ADME, organism-based; conditions: in vivo
[33] = Half life in rat at 10 mg/kg, po; assay type: ADME, organism-based; conditions: in vivo
Mus musculus [34] = experiment: Antinociceptive activity in capsaicin-induced licking mouse model assessed as reduction in time spent on licking at 3 mg/kg, po relative to control; assay type: functional; set-up: scale not given: the % may be the effect or the level left

Chain of Sodium channel protein type 9 subunit alpha (Q15858 whole entry): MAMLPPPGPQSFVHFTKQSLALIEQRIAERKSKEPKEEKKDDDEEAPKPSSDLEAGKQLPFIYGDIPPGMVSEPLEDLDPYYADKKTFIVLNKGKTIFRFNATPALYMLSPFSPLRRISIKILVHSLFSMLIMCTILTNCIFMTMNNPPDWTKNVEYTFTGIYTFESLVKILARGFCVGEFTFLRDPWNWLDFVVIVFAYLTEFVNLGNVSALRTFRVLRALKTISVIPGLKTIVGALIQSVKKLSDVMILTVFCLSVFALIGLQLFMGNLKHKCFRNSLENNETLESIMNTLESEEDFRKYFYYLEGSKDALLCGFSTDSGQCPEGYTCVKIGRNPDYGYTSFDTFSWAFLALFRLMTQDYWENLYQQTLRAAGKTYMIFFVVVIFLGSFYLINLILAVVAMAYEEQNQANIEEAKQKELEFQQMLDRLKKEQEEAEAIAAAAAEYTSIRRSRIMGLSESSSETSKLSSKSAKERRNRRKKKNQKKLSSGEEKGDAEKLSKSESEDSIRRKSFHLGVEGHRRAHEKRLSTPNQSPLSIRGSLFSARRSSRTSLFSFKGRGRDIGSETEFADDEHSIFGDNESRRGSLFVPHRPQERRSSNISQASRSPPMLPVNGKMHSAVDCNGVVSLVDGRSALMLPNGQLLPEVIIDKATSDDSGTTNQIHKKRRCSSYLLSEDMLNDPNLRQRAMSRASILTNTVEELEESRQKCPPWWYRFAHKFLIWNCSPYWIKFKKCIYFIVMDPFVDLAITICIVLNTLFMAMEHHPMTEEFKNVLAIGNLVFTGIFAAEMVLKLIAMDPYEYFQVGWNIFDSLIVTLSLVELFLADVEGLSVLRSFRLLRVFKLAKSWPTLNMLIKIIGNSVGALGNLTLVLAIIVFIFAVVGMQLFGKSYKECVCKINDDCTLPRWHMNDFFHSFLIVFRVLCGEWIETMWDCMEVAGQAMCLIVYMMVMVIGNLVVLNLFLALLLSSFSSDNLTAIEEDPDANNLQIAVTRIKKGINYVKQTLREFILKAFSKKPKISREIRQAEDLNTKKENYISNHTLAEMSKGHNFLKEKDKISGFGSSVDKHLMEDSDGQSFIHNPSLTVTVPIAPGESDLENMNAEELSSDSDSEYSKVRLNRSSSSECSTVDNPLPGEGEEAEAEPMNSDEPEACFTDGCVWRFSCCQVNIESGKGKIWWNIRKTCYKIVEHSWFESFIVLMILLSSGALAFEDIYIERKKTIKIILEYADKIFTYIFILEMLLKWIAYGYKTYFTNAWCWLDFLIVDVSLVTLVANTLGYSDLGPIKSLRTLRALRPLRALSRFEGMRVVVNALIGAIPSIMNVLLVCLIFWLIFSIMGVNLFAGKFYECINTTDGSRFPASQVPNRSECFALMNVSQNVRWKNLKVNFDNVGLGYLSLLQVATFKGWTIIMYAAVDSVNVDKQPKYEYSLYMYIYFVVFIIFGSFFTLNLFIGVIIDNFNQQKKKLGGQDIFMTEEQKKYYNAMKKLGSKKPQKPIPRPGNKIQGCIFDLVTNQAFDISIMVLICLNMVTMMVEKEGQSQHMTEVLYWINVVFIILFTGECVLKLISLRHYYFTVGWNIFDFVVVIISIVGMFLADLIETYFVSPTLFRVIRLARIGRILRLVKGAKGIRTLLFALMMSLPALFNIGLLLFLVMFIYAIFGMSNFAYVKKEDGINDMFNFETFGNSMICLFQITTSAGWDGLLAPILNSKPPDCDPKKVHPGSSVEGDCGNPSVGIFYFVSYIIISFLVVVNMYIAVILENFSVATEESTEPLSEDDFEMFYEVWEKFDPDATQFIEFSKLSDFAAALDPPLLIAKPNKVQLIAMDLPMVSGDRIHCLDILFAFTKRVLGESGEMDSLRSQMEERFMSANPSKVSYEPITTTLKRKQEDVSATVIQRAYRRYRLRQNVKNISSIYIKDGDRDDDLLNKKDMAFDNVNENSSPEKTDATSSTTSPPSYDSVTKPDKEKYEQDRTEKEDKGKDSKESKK

`COc1cc(-c2ccc(Cl)c(C)c2)ccc1N(C(C)=O)c1ccc(S(=O)(=O)Nc2ccon2)cn1` showed an IC50 [1] of 2.91 µM.
In the case of `CNC(=O)N(c1ccc(S(=O)(=O)Nc2cccnn2)cn1)c1cc(F)c(-c2ccc(F)c(OC(F)(F)F)c2)cc1OC`, the clearance [2] is reported as 11.7 mL/min/kg, the IC50 (Cytochrome P450 2D6 [3]) is reported as 30 µM and the CL free [4] is reported as 1150 mL/min/kg. The IC50 (Cytochrome P450 3A4 [5]) was > 50 µM, the IC50 (Cytochrome P450 3A4 [6]) was > 50 µM and the IC50 (Cytochrome P450 2D6 [7]) was 19 µM. For the same molecule, the logD [8] was 1.8.
For `CNC(=O)N(c1ccc(S(=O)(=O)Nc2ccon2)cn1)c1cc(Cl)c(-c2cc(OC)nc(C(F)(F)F)c2)cc1OC`, the IC50 (Cytochrome P450 3A4 [5]) was > 50 µM and the IC50 (Cytochrome P450 3A4 [6]) was > 50 µM.
In the case of `CNC(=O)N(c1ccc(S(=O)(=O)Nc2ccon2)cc1)c1ccc(-c2ccc(Cl)c(C)c2)cc1OC`, the clearance [2] is reported as 22.2 mL/min/kg, the CL free [4] is reported as 3000 mL/min/kg and the Papp [9] is reported as 1.5 ×10⁻⁶ cm/s. It also gave an IC50 [1] of 3.8 µM.
With `CNC(=O)N(c1ccc(S(=O)(=O)Nc2ncccn2)cn1)c1cc(F)c(-c2ccc(F)c(C(F)(F)F)c2)cc1OC` the clearance [2] was 2.5 mL/min/kg, the CL free [4] was 817 mL/min/kg and the IC50 (Cytochrome P450 3A4 [5]) was > 50 µM. For the same molecule, the IC50 (Cytochrome P450 3A4 [6]) was > 50 µM and the logD [8] was 1.2.
With `COc1cc(-c2ccc(Cl)c(C#N)c2)c(F)cc1-n1c(=O)ccc2cc(S(=O)(=O)Nc3ccon3)ccc21` the clearance [2] was 35 mL/min/kg, the CL free [4] was 10100 mL/min/kg and the IC50 [1] was 0.008 µM.
With `CNC(=O)N(c1ccc(S(=O)(=O)Nc2ccon2)cn1)c1ccc(-c2ccc(Cl)c(C)c2)cc1OC` the microsomal CLint [10] was 29 µL/min/mg, the clearance [2] was 14.7 mL/min/kg and the IC50 (Cytochrome P450 2C9 [11]) was 3.3 µM. The CL free [4] was 6130 mL/min/kg, the IC50 (Cytochrome P450 3A4 [5]) was > 50 µM and the IC50 (Cytochrome P450 3A4 [6]) was > 50 µM. The IC50 [1] was 0.087 µM and the logD [8] was 0.8.
Molecule `CNC(=O)N(c1ccc(S(=O)(=O)Nc2ncccn2)cn1)c1cc(F)c(-c2ccc(F)c(OC(F)(F)F)c2)cc1OC` has an IC50 [12] of 40 µM, a Papp [13] of 18 ×10⁻⁶ cm/s and an IC50 (Cytochrome P450 2C9 [14]) of 3.3 µM. For the same molecule, the Activity (Mus musculus [15]) was 63%, the half-life [16] was 3.4 h and the clearance [2] was 1.17 mL/min/kg. The clearance [17] was 1.67 mL/min/kg, the CL free [18] was 60 mL/min/kg and the AUC [19] was 200 µM·h. For the same molecule, the CL free [20] was 183 mL/min/kg, the Activity (Mus musculus [21]) was 83% and the activity at 10 µM (PXR (NR1I2)) was 3%. For the same molecule, the clearance [22] was 0.25 mL/min/kg, the AUC [23] was 212 µM·h and the Activity (Mus musculus [24]) was 89%. For the same molecule, the solubility [25] was 260 µM (≈ 159 µg/mL), the CL free [4] was 733 mL/min/kg and the IC50 (Cytochrome P450 3A4 [5]) was > 50 µM. The AUC [26] was 1150 µM·h, the Activity (Mus musculus [27]) was 95% and the half-life [28] was 18 h. The bioavailability [29] was 104%, the bioavailability [30] was 95% and the IC50 (Cytochrome P450 3A4 [6]) was > 50 µM. For the same molecule, the Activity (Mus musculus [31]) was 55%, the bioavailability [32] was 80% and the half-life [33] was 4.6 h. For the same molecule, the logD [8] was 1.4.
For `COc1cc(-c2ccc(Cl)c(C)c2)ccc1N(C(=O)N(C)C)c1ccc(S(=O)(=O)Nc2ccon2)cn1`, the IC50 [1] was > 5 µM.
`CN1CC[C@]23c4c5ccc(O)c4O[C@H]2[C@@H](O)C=C[C@H]3[C@H]1C5` [MORPHINE] gave an Activity (Mus musculus [34]) of 98%.
For `CNC(=O)N(c1ccc(S(=O)(=O)Nc2ncccn2)cn1)c1cc(Cl)c(-c2ccc(F)c(OC(F)(F)F)c2)cc1OC`, the IC50 (Cytochrome P450 3A4 [5]) was > 50 µM, the IC50 (Cytochrome P450 3A4 [6]) was 11 µM and the logD [8] was 1.6.
In the case of `CNC(=O)N(c1ccc(S(=O)(=O)Nc2ccon2)cn1)c1cc(Cl)c(-c2cccc(OCC(F)(F)F)c2)cc1OC`, the IC50 (Cytochrome P450 3A4 [5]) is reported as > 50 µM and the IC50 (Cytochrome P450 3A4 [6]) is reported as 35 µM.
In the case of `CNC(=O)N(c1ccc(S(=O)(=O)Nc2ccon2)cn1)c1cc(Cl)c(-c2cc(F)c(F)c(F)c2)cc1OC`, the clearance [2] is reported as 33.3 mL/min/kg, the CL free [4] is reported as 4770 mL/min/kg and the IC50 (Cytochrome P450 3A4 [5]) is reported as > 50 µM. For the same molecule, the IC50 (Cytochrome P450 3A4 [6]) was > 50 µM and the logD [8] was 0.7.
